Reference: ChEMBL document CHEMBL1129091, “Synthesis and biological evaluation of a bicyclo [7.4.1]enediyne” (Bioorg Med Chem Lett, 1996)
Converted amounts (≈) assume the structure as drawn.

Tested on: HCT-116
Assay: In vitro cytotoxicity against human colon carcinoma cells (HCT116)
Type: functional, cell-based

## CC1(C)C2=CC(=O)CC[C@@]1(O)C#C/C=C\C#C[C@H]2O
  IC50: 18 µg/mL (≈ 70.2 µM)
